Read-outs that look alike come from different tables or passages of the source.
Key:
Format in all cases: in vivo
[1] = test system: Plutella xylostella (Diamond Back Moth); assay: Activity against Plutella xylostella, larvicide, feeding/residual contact activity, preventive (artificial diet MTP, Example B5); conditions: 120 h, read-out: activity (larval mortality, antifeedant, growth regulation)
Description: Activity Against Plutella xylostella (Diamond Back Moth)
(§1) (larvicide, feeding/residual contact activity, preventive)
24-well microtiter plate (MTP) with artificial diet is treated with test solutions by pipetting. After drying, the MTP's are infested with larvae (L2)(10-15 per well). After an incubation period of 5 days, samples are checked for larval mortality, antifeedant and growth regulation.

[2] = test system: Myzus persicae (Green Peach Aphid); assay: Activity against Myzus persicae, mixed population, feeding/residual contact activity, preventive (sunflower leaf discs, Example B1); conditions: foliar, 144 h, 400 ppm, sprayed sunflower leaf discs, 6 days incubation, mixed-age aphids, read-out: activity (mortality)
Description: (§2) Activity Against Myzus persicae (Green Peach Aphid)
(§3) (mixed population, feeding/residual contact activity, preventive)
Sunflower leaf discs are placed on agar in a 24-well microtiter plate and sprayed with test solutions. After drying, the leaf discs are infested with an aphid population of mixed ages. After an incubation period of 6 days, samples are checked for mortality and special effects (e.g. phytotoxicity).

[3] = test system: Thrips tabaci (Onion Thrips); assay: Activity against Thrips tabaci, mixed population, feeding/residual contact activity, preventive (sunflower leaf discs, Example B3); conditions: foliar, 144 h, sprayed sunflower leaf discs, 6 days incubation, mixed-age thrips
Description: Activity Against Thrips tabaci (Onion Thrips)
as §3
Sunflower leaf discs are placed on agar in a 24-well microtiter plate and sprayed with test solutions. After drying, the leaf discs are infested with a thrips population of mixed ages. After an incubation period of 6 days, samples are checked for mortality and special effects (e.g. phytotoxicity).

[4] = test system: Tetranychus urticae (Two-Spotted Spider Mite); assay: Activity against Tetranychus urticae, mixed population, feeding/residual contact activity, preventive (bean leaf discs, Example B4); conditions: foliar, 192 h, 400 ppm, sprayed bean leaf discs, 8 days, mixed-age mites, read-out: activity (egg, larval and adult mortality)
Excerpt: Activity Against Tetranychus urticae (Two-Spotted Spider Mite)
as §3
Bean leaf discs on agar in 24-well microtiter plates are sprayed with test solutions. After drying, the leaf discs are infested with mite populations of mixed ages. 8 days later, discs are checked for egg mortality, larval mortality, and adult mortality.

[5] = test system: Diabrotica balteata (Corn Root Worm); assay: Activity against Diabrotica balteata, larvicide, feeding/residual contact activity, preventive (artificial diet MTP, Example B6); conditions: 120 h, L2 larvae, 5 days incubation, read-out: activity (larval mortality, antifeedant, growth regulation)
Description: Activity Against Diabrotica balteata (Corn Root Worm)
as §1
24-well microtiter plate (MTP) with artificial diet is treated with test solutions by pipetting. After drying, the MTP's are infested with larvae (L2)(6-10 per well). After an incubation period of 5 days, samples are checked for larval mortality, antifeedant and growth regulation.

[6] = test system: Myzus persicae (Green Peach Aphid); assay: Activity against Myzus persicae, mixed population, feeding activity (sucrose solution through Parafilm, Example B7); conditions: 120 h, in sucrose solution, 5 days after infestation
Excerpt: as §2
(mixed population, feeding activity)
Test compounds are applied with a pipette into 24 well plates and mixed with a sucrose solution. The plates are closed with a stretched Parafilm. A plastic stencil with 24 holes is placed onto the plate and infested pea seedlings are placed directly on the Parafilm. The infested plate is closed with a gel blotting paper and another plastic stencil, and then turned upside down. 5 days after infestation the samples are checked for mortality.

[7] = 400 ppm, artificial diet, L2 larvae, 5 days incubation

**Q.** How did the mortality at 400 ppm [1, 7] turn out when `Cc1cc(C)c(C2C(=O)CC(CC3CCN(C(=O)c4cc(C)nn4C)CC3)C2=O)c(C)c1` (stereo not shown) [Compound T121] was run?
**A.** > 80%

**Q.** Which mortality at 400 ppm [2] does the source give for `Cc1cc(C)c(C2C(=O)C/C(=C\C3CCOC3)C2=O)c(C)c1` (stereo not shown) [Compound T17] here?
**A.** > 80%

**Q.** What about the mortality at 400 ppm [3] of the same molecule?
**A.** > 80%

**Q.** What about the mortality at 400 ppm [4] of the same molecule?
**A.** > 80%

**Q.** And the mortality at 400 ppm [1, 7]?
**A.** > 80%

**Q.** What about the mortality at 400 ppm [5] of the same molecule?
**A.** > 80%

**Q.** What does the source list for `Cc1cc(C)c(C2C(=O)C/C(=C\C3CCCOC3)C2=O)c(C)c1` (stereo not shown) [Compound T14]?
**A.** mortality at 400 ppm [2]: > 80%; mortality at 400 ppm [3]: > 80%; mortality at 400 ppm [4]: > 80%; mortality at 400 ppm [1, 7]: > 80%; mortality at 25 ppm [6]: > 80%

**Q.** `Cc1cc(C)c(C2C(=O)CC(CC3CCOC(C)(C)C3)C2=O)c(C)c1` (stereo not shown) [Compound T39] was tested. Which mortality at 400 ppm [4] did it give?
**A.** > 80%

**Q.** And the mortality at 400 ppm [5]?
**A.** > 80%

**Q.** Which results are given for `Cc1cc(C)c(C2=C(OC(=O)OCC(C)C)CC(CC3CCOC3)C2=O)c(C)c1` (stereo not shown) [Compound P23]?
**A.** mortality at 400 ppm [3]: > 80%; mortality at 400 ppm [4]: > 80%

**Q.** Which results are given for `Cc1cc(C)c(C2C(=O)CC(CC3CCOC3)C2=O)c(C)c1` (stereo not shown) [Compound T5]?
**A.** mortality at 400 ppm [2]: > 80%; mortality at 400 ppm [3]: > 80%; mortality at 400 ppm [1, 7]: > 80%

**Q.** Which mortality at 400 ppm [4] does the source give for `Cc1cc(C)c(C2=C(OC(=O)C(C)(C)C)CC(CC3CCCOC3)C2=O)c(C)c1` (stereo not shown) [Compound P37] here?
**A.** > 80%

**Q.** And the mortality at 400 ppm [1, 7]?
**A.** > 80%

**Q.** With `COc1ccc(C(=O)OC2=C(c3c(C)cc(C)cc3C)C(=O)C(CC3CCOC3)C2)cc1` (stereo not shown) [Compound P18] as the molecule, how does the mortality at 400 ppm [3] read?
**A.** > 80%

**Q.** What about the mortality at 400 ppm [4] of the same molecule?
**A.** > 80%

**Q.** For `Cc1cc(C)c(C2C(=O)C/C(=C\C3CCOCC3)C2=O)c(C)c1` (stereo not shown) [Compound T8], which mortality at 400 ppm [2] is on record?
**A.** > 80%

**Q.** What about the mortality at 400 ppm [3] of the same molecule?
**A.** > 80%

**Q.** And the mortality at 400 ppm [4]?
**A.** > 80%

**Q.** What about the mortality at 400 ppm [1, 7] of the same molecule?
**A.** > 80%

**Q.** For `CON1CCC(CC2CC(OC(=O)c3ccccc3)=C(c3c(C)cc(C)cc3C)C2=O)CC1` (stereo not shown) [Compound P55], which mortality at 400 ppm [3] is on record?
**A.** > 80%

**Q.** And the mortality at 400 ppm [4]?
**A.** > 80%

**Q.** For `Cc1cc(C)c(C2=C(OC(=O)c3ccccc3)CC(CC3CCOC3)C2=O)c(C)c1` (stereo not shown) [Compound P17], which mortality at 400 ppm [2] is on record?
**A.** > 80%

**Q.** What about the mortality at 400 ppm [3] of the same molecule?
**A.** > 80%

**Q.** And the mortality at 400 ppm [4]?
**A.** > 80%

**Q.** Which mortality at 400 ppm [2] does the source give for `COc1ccc(C(=O)OC2=C(c3c(C)cc(C)cc3C)C(=O)CC2CC2CCOC2)cc1` (stereo not shown) [Compound P71] here?
**A.** > 80%

**Q.** What about the mortality at 400 ppm [4] of the same molecule?
**A.** > 80%

**Q.** And the mortality at 400 ppm [5]?
**A.** > 80%

**Q.** For `CON1CCC(CC2CC(=O)C(c3c(C)cc(C)cc3C)C2=O)CC1` (stereo not shown) [Compound T23], which mortality at 400 ppm [2] is on record?
**A.** > 80%

**Q.** And the mortality at 400 ppm [3]?
**A.** > 80%

**Q.** What does the source list for `Cc1cc(-c2ccc(Cl)cc2)cc(C)c1C1C(=O)C/C(=C\C2CCOCC2)C1=O` (stereo not shown) [Compound T62]?
**A.** mortality at 400 ppm [2]: > 80%; mortality at 400 ppm [4]: > 80%; mortality at 400 ppm [1, 7]: > 80%; mortality at 25 ppm [6]: > 80%

**Q.** For `Cc1cc(Br)cc(C)c1C1C(=O)CC(CC2CCOC2)C1=O` (stereo not shown) [Compound T160], which mortality at 400 ppm [5] is on record?
**A.** > 80%

**Q.** Which mortality at 400 ppm [4] does the source give for `Cc1cc(C)c(C2C(=O)C/C(=C\C3CCN(S(C)(=O)=O)C3)C2=O)c(C)c1` (stereo not shown) [Compound T31] here?
**A.** > 80%

**Q.** What about the mortality at 400 ppm [1, 7] of the same molecule?
**A.** > 80%

**Q.** Which results are given for `Cc1cc(C)c(C2=C(OC(=O)c3ccccc3)CC(CC3CCOCC3)C2=O)c(C)c1` (stereo not shown) [Compound P44]?
**A.** mortality at 400 ppm [2]: > 80%; mortality at 400 ppm [3]: > 80%; mortality at 400 ppm [4]: > 80%; mortality at 400 ppm [1, 7]: > 80%; mortality at 400 ppm [5]: > 80%

**Q.** `Cc1cc(C)c(C2C(=O)CC(CC3CCCOC3)C2=O)c(C)c1` (stereo not shown) [Compound T16] was tested. Which mortality at 400 ppm [2] did it give?
**A.** > 80%

**Q.** And the mortality at 400 ppm [3]?
**A.** > 80%

**Q.** What about the mortality at 400 ppm [1, 7] of the same molecule?
**A.** > 80%

**Q.** How did the mortality at 400 ppm [3] turn out when `Cc1cc(C)c(C2C(=O)CC(CC3CCOCC3)C2=O)c(C)c1` (stereo not shown) [Compound T4] was run?
**A.** > 80%

**Q.** And the mortality at 400 ppm [1, 7]?
**A.** > 80%

**Q.** What does the source list for `Cc1cc(C)c(C2C(=O)C/C(=C\C3CCN(C(=O)OC(C)(C)C)CC3)C2=O)c(C)c1` (stereo not shown) [Compound T54]?
**A.** mortality at 400 ppm [4]: > 80%; mortality at 400 ppm [5]: > 80%

**Q.** With `Cc1cccc(C)c1C1C(=O)CC(CC2CCOCC2)C1=O` (stereo not shown) [Compound T52] as the molecule, how does the mortality at 400 ppm [2] read?
**A.** > 80%

**Q.** And the mortality at 400 ppm [3]?
**A.** > 80%

**Q.** What about the mortality at 400 ppm [4] of the same molecule?
**A.** > 80%

**Q.** `CON1CCC(CC2CC(OC(C)=O)=C(c3c(C)cc(C)cc3C)C2=O)CC1` (stereo not shown) [Compound P50] was tested. Which mortality at 400 ppm [2] did it give?
**A.** > 80%

**Q.** And the mortality at 400 ppm [3]?
**A.** > 80%

**Q.** `Cc1cc(C)c(C2=C(OC(=O)OC(C)C)CC(CC3CCOCC3)C2=O)c(C)c1` (stereo not shown) [Compound P43] was tested. Which mortality at 400 ppm [3] did it give?
**A.** > 80%

**Q.** Which results are given for `Cc1cc(-c2ccc(F)cc2)cc(C)c1C1C(=O)CC(CC2CCOCC2)C1=O` (stereo not shown) [Compound T63]?
**A.** mortality at 400 ppm [2]: > 80%; mortality at 400 ppm [4]: > 80%; mortality at 25 ppm [6]: > 80%

**Q.** For `CCSC(=O)N1CCC(/C=C2\CC(=O)C(c3c(C)cc(C)cc3C)C2=O)C1` (stereo not shown) [Compound T33], which mortality at 400 ppm [1] is on record?
**A.** > 80%

**Q.** Which results are given for `Cc1cc(-c2ccc(F)cc2)cc(C)c1C1C(=O)C/C(=C\C2CCOCC2)C1=O` (stereo not shown) [Compound T61]?
**A.** mortality at 400 ppm [2]: > 80%; mortality at 400 ppm [4]: > 80%; mortality at 25 ppm [6]: > 80%

**Q.** For `CCCOC(=O)OC1=C(c2c(C)cc(C)cc2C)C(=O)C(CC2CCOC2)C1` (stereo not shown) [Compound P20], which mortality at 400 ppm [3] is on record?
**A.** > 80%

**Q.** What about the mortality at 400 ppm [1, 7] of the same molecule?
**A.** > 80%

**Q.** For `Cc1cc(C)c(C2=C(OC(=O)C(C)(C)C)CC(CC3CCOCC3)C2=O)c(C)c1` (stereo not shown) [Compound P5], which mortality at 400 ppm [1, 7] is on record?
**A.** > 80%

**Q.** `CON1CCC(CC2CC(OC(=O)OC(C)C)=C(c3c(C)cc(C)cc3C)C2=O)CC1` (stereo not shown) [Compound P56] was tested. Which mortality at 400 ppm [3] did it give?
**A.** > 80%

**Q.** And the mortality at 400 ppm [4]?
**A.** > 80%

**Q.** With `Cc1cc(C)c(C2=C(OC(=O)C(C)C)CC(CC3CCOC3)C2=O)c(C)c1` (stereo not shown) [Compound P13] as the molecule, how does the mortality at 400 ppm [3] read?
**A.** > 80%

**Q.** With `Cc1cc(C)c(C2C(=O)CC(CC3C[C@@H]4O[C@H]3[C@@H]3C(=O)NC(=O)[C@@H]34)C2=O)c(C)c1` (stereo partly shown) [Compound T127] as the molecule, how does the mortality at 400 ppm [1, 7] read?
**A.** > 80%

**Q.** With `Cc1cc(C)c(C2=C(OC(=O)C(C)(C)C)CC(CC3CCOC3)C2=O)c(C)c1` (stereo not shown) [Compound P7] as the molecule, how does the mortality at 400 ppm [2] read?
**A.** > 80%

**Q.** And the mortality at 400 ppm [3]?
**A.** > 80%

**Q.** And the mortality at 400 ppm [4]?
**A.** > 80%

**Q.** And the mortality at 400 ppm [1, 7]?
**A.** > 80%
